Measurements reported in patent publication US8273773B2 (priority 2008, dated 2012).
Like-named read-outs stand apart in the source and are kept apart here.

Target: T1, HCV polymerase (NS5B570n-Con1) (Hepatitis C virus genotype 1b, UniProt Q9WMX2)
T1 construct: contains a 21 amino acid deletion at the C-terminus relative to the full-length HCV polymerase; 6-histidine (N); made in house; host or cells: E. coli strain BL21(DE) pLysS (pET17b)
Test: biochemical
Parameters: species or system HCV Con1 strain

[1] = IC50 HCV NS5B RNA Polymerase Assay, values without asterisk, 20 nM NS5B570n-Con1 enzyme, 20 nM cIRES RNA template
[2] = IC50 HCV NS5B RNA Polymerase Assay (values with asterisk), values with asterisk: cIRES RNA template, 3 nM NS5B570n-Con1
[3] = values without asterisk, 20 nM NS5B570n-Con1 enzyme, 20 nM cIRES RNA template, read-out: IC50 HCV NS5B RNA Polymerase Assay
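Note: recombinant His-tagged enzyme from E. coli, radiolabeled nucleotide incorporation into acid-insoluble RNA read by scintillation after filtration, no-enzyme background subtracted, activity relative to positive control.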

SMILES | IC50 [1] [nM] | IC50 [2] [nM] | other results
COc1c(CC(CN(C)C)c2ccc(NS(C)(=O)=O)cc2)cc(-c2ccc[nH]c2=O)cc1C(C)(C)C (centres unmarked) [I-192, N-(4-{2-[3-tert-Butyl-2-methoxy-5-(2-oxo-1,2-dihydro-pyridin-3-yl)-phenyl]-1-dimethylaminomethyl-ethyl}-phenyl)-methanesulfonamide] | 28 |  | 
COc1c(NC(=O)c2ccc(N)cn2)cc(-c2ccc[nH]c2=O)cc1C(C)(C)C [I-283] | 9 |  | 
COc1c(/C=C/c2ccc(NS(=O)(=O)CCCN3CCOCC3)cc2)cc(-c2cc(F)c[nH]c2=O)cc1C(C)(C)C [I-231, 3-Morpholin-4-yl-propane-1-sulfonic acid (4-{(E)-2-[3-tert-butyl-5-(5-fluoro-2-oxo-1,2-dihydro-pyridin-3-yl)-2-methoxy-phenyl]-vinyl}-phenyl)-amide] |  | 4 | 
COc1c(C(=O)Nc2cccc(CO)c2)cc(-c2ccc[nH]c2=O)cc1C(C)(C)C [I-97] | 384 |  | 
COc1c(C(=O)Nc2ccccc2C)cc(-c2ccc[nH]c2=O)cc1C(C)(C)C [I-79] | 1170 |  | 
COc1c(N(C)C(=O)c2ccc(NS(C)(=O)=O)cc2)cc(-c2ccc[nH]c2=O)cc1C(C)(C)C [I-104, N-[3-tert-Butyl-2-methoxy-5-(2-oxo-1,2-dihydro-pyridin-3-yl)-phenyl]-4-methanesulfonylamino-N-methyl-benzamide] | 107 |  | 
COc1c(NC(=O)c2ccc(N)nc2)cc(-c2ccc[nH]c2=O)cc1C(C)(C)C [I-247, 6-Amino-N-[3-tert-butyl-2-methoxy-5-(2-oxo-1,2-dihydro-pyridin-3-yl)-phenyl]-nicotinamide] | 22 |  | 
COc1c(/C=C/c2ccncc2C#N)cc(-c2ccc[nH]c2=O)cc1C(C)(C)C [I-245, 4-{(L)-2-[3-tert-Butyl-2-methoxy-5-(2-oxo-1,2-dihydro-pyridin-3-yl)-phenyl]-vinyl}-nicotinonitrile] |  | 1 | 
COc1c(/C=C/c2ccc(NS(=O)(=O)CC(F)(F)F)cc2)cc(-c2cc(F)c[nH]c2=O)cc1C(C)(C)C [I-152] | 16 |  | 
COc1c(CCc2ccc(NS(C)(=O)=O)cc2)cc(-c2ccc[nH]c2=O)c(F)c1C(C)(C)C [I-287, N-(4-{2-[3-tert-Butyl-4-fluoro-2-methoxy-5-(2-oxo-1,2-dihydro-pyridin-3-yl)-phenyl]-ethyl}-phenyl)-methanesulfonamide] | 9 |  | 
CC(C)(C)c1cc(CCc2ccc(NS(C)(=O)=O)cn2)c(O)c(-c2ccc[nH]c2=O)c1 [I-214, N-(6-{2-[5-tert-butyl-2-hydroxy-3-(2-oxo-1,2-dihydro-pyridin-3-yl)-phenyl]-ethyl}-pyridin-3-yl)-methanesulfonamide] | 5 | 2 | 
CS(=O)(=O)Nc1ccc(/C=C/c2cc(-c3cc(F)c[nH]c3=O)cc(C3(Cl)CC3)c2)cc1 [I-273, N-(4-{(E)-2-[3-(1-Chloro-cyclopropyl)-5-(5-fluoro-2-oxo-1,2-dihydro-pyridin-3-yl)-phenyl]-vinyl}-phenyl)-methanesulfonamide] |  | 3 | 
COc1c(/C=C/c2ccc(N)nn2)cc(-c2ccc[nH]c2=O)cc1C(C)(C)C [I-181] | 8 |  | 
COCCCS(=O)(=O)Nc1ccc(/C=C/c2cc(-c3cc(F)c[nH]c3=O)cc(C(C)(C)C)c2OC)cc1 [I-156] | 6 |  | 
COc1c(/C=C/c2ccc(NS(C)(=O)=O)nn2)cc(-c2ccc[nH]c2=O)cc1C(C)(C)C [I-182] |  |  | IC50 (read-out: IC50 HCV NS5B RNA Polymerase Assay, values without asterisk, 20 nM NS5B570n-Con1 enzyme, 20 nM cIRES RNA template): 9 nM
COc1c(C(=O)NC2CCCCC2CO)cc(-c2ccc[nH]c2=O)cc1C(C)(C)C (centres unmarked) [I-93] | 1900 |  | 
COc1c(/C=C/c2ccc(NS(C)(=O)=O)cc2)cc(-c2cc(F)c[nH]c2=O)cc1C1(C(F)F)CC1 [I-269, N-(4-{(E)-2-[3-(1-Difluoromethyl-cyclopropyl)-5-(5-fluoro-2-oxo-1,2-dihydro-pyridin-3-yl)-2-methoxy-phenyl]-vinyl}-phenyl)-methanesulfonamide] |  | 3 | 
CC(C)(CO)c1cc(/C=C/c2ccc(NS(C)(=O)=O)cc2)cc(-c2ccc[nH]c2=O)c1 [I-272, N-(4-{(E)-2-[3-(2-Hydroxy-1,1-dimethyl-ethyl)-5-(2-oxo-1,2-dihydro-pyridin-3-yl)-phenyl]-vinyl}-phenyl)-methanesulfonamide] |  | 6 | 
COc1cc(C(=O)O)ccc1[N+](=O)[O-] [I-130] |  |  | IC50 [3]: 3 nM
COc1c(NC(=O)c2ccc(NCC(F)(F)F)c(F)c2)cc(-c2ccc[nH]c2=O)cc1C(C)(C)C [I-251, N-[3-tert-Butyl-2-methoxy-5-(2-oxo-1,2-dihydro-pyridin-3-yl)-phenyl]-3-fluoro-4-(2,2,2-trifluoro-ethylamino)-benzamide] |  | 2 | 
COc1c(/C=C/c2ncc(NS(C)(=O)=O)cc2C)cc(-c2ccc[nH]c2=O)cc1C(C)(C)C [I-213, N-(6-{(E)-2-[3-tert-Butyl-2-methoxy-5-(2-oxo-1,2-dihydro-pyridin-3-yl)-phenyl]-vinyl}-5-methyl-pyridin-3-yl)-methanesulfonamide] |  | 3 | 
O=C(O)c1ccc([N+](=O)[O-])cn1 [I-136] |  |  | IC50 [3]: 5 nM

SMILES | IC50 [1] [nM] | IC50 [2] [nM] | other results
COc1c(/C=C/c2ccc(NS(=O)(=O)CCCN3CCCC3)cc2)cc(-c2cc(F)c[nH]c2=O)cc1C(C)(C)C [I-230, 3-Pyrrolidin-1-yl-propane-1-sulfonic acid (4-{(E)-2-[3-tert-butyl-5-(5-fluoro-2-oxo-1,2-dihydro-pyridin-3-yl)-2-methoxy-phenyl]-vinyl}-phenyl)-amide] |  | 6 | 
COC(=O)c1cc(NS(C)(=O)=O)ccc1/C=C/c1cc(-c2ccc(C)[nH]c2=O)cc(C(C)(C)C)c1OC [I-201, 2-{(E)-2-[3-tert-Butyl-2-methoxy-5-(6-methyl-2-oxo-1,2-dihydro-pyridin-3-yl)-phenyl]-vinyl}-5-methanesulfonylamino-benzoic acid methyl ester] |  | 1 | 
CC(C)(C)c1cc(CCc2ccc(NS(C)(=O)=O)cc2C#N)c(O)c(-c2ccc[nH]c2=O)c1 [I-216, N-(4-{2-[5-tert-Butyl-2-hydroxy-3-(2-oxo-1,2-dihydro-pyridin-3-yl)-phenyl]ethyl}-3-cyano-phenyl)-methanesulfonamide] | 5 |  | 
COc1ccc(-c2cc(/C=C/c3ccc(NS(C)(=O)=O)cc3CO)c(OC)c(C(C)(C)C)c2)c(=O)[nH]1 [I-210, N-(4-{(E)-2-[3-tert-Butyl-2-methoxy-5-(6-methoxy-2-oxo-1,2-dihydro-pyridin-3-yl)-phenyl]-vinyl}-3-hydroxymethyl-phenyl)-methanesulfonamide] |  | 1 | 
COc1c(/C=C/c2ccc(NS(C)(=O)=O)cc2C(=O)N(C)CCN(C)C)cc(-c2cc(F)c[nH]c2=O)cc1C(C)(C)C [I-207] |  | 4 | 
COCCOc1c(/C=C/c2ccc(NS(C)(=O)=O)cc2)cc(-c2ccc[nH]c2=O)cc1C(C)(C)C [I-250] |  | 23 | 
COc1c(/C=C(\CO)c2ccc(NS(C)(=O)=O)cc2)cc(-c2ccc[nH]c2=O)cc1C(C)(C)C [I-149, N-(4-{(Z)-2-[3-tert-Butyl-2-methoxy-5-(2-oxo-1,2-dihydro-pyridin-3-yl)-phenyl]-1-hydroxymethyl-vinyl}-phenyl)-methanesulfonamide] | 26 |  | 
COc1c(NC(=O)c2ccc(N)cc2F)cc(-c2ccc[nH]c2=O)cc1C(C)(C)C [I-280] | 10 |  | 
Cc1cc(-c2ccc[nH]c2=O)cc(C2(C)CCCC2)c1 [I-27] |  | 5380 | 
Cc1cc(-c2ccc[nH]c2=O)cc(C2(C)CCC2)c1 [I-28] | 1460 |  | 
CC(C)(C)c1cc(-c2ccc[nH]c2=O)cc(NC(=O)c2ccccc2)c1F [I-60] | 1090 |  | 
COc1c(C(=O)NC2CCCN(C)C2)cc(-c2ccc[nH]c2=O)cc1C(C)(C)C (centres unmarked) [I-77] | 1830 |  | 
COc1c(/C=C/c2ccccc2F)cc(-c2ccc[nH]c2=O)cc1C(C)(C)C [I-237, 3-{3-tert-Butyl-5-[(E)-2-(2-fluoro-phenyl)-vinyl]-4-methoxy-phenyl}-1H-pyridin-2-one] |  | 13 | 
COc1c(C(=O)NC2CCN(C)CC2)cc(-c2ccc[nH]c2=O)cc1C(C)(C)C [I-91] | 1480 |  | 
COc1c(CC(C)(CO)c2ccc(NS(C)(=O)=O)cc2)cc(-c2ccc[nH]c2=O)cc1C(C)(C)C (centres unmarked) [I-198, N-(4-{2-[3-tert-Butyl-2-methoxy-5-(2-oxo-1,2-dihydro-pyridin-3-yl)-phenyl]-1-hydroxymethyl-1-methyl-ethyl}-phenyl)-methanesulfonamide] | 19 |  | 
CC(C)(C)c1cc(/C=C/c2ccc(NS(C)(=O)=O)c(F)c2)cc(-c2ccc[nH]c2=O)c1 [I-146, N-(4-{(E)-2-[3-tert-Butyl-5-(2-oxo-1,2-dihydro-pyridin-3-yl)-phenyl]-vinyl}-2-fluoro-phenyl)-methanesulfonamide] | 3 |  | 
COc1c(NC(=O)c2ccc(NC(C)=O)cc2)cc(-c2ccc[nH]c2=O)cc1C(C)(C)C [I-277] | 357 |  | 
COC(=O)c1cc(NS(C)(=O)=O)ccc1/C=C/c1cc(-c2ccc[nH]c2=O)cc(C(C)(C)C)c1 [I-158] | 19 |  | 
COc1c(C(=O)NCCCN2CCCC2=O)cc(-c2ccc[nH]c2=O)cc1C(C)(C)C [I-44] | 1200 |  | 
CCS(=O)(=O)Nc1ccc(/C=C/c2cc(-c3cc(F)c[nH]c3=O)cc(C(C)(C)C)c2OC)cc1 [I-228, Ethanesulfonic acid (4-{(E)-2-[3-tert-butyl-5-(5-fluoro-2-oxo-1,2-dihydro-pyridin-3-yl)-2-methoxy-phenyl]-vinyl}-phenyl)-amide] |  | 5 | 
COCCN(C(=O)c1cc(-c2ccc[nH]c2=O)cc(C(C)(C)C)c1OC)C1CC1 [I-31] | 2290 |  | 
